Results reported in patent US7772260B2, “Imidazo[2,1-b]-1,3,4-thiadiazole sulfonamides” (Aegera Therapeutics Inc., priority 2001, dated 2010).
Values joined by “and” are separate entries in the source; they are usually repeats but may differ in a detail not shown here. Equal values may be shown once. Where a name gives a salt, the structure may show the parent alone. Values belong to the molecule of their own block, whether it stands above or below them.

What was measured:
SCG neurons [1] = assay: Protection of SCG neurons from anti-NGF killing; type: cell-based, Sprague Dawley rats; settings: anti-NGF antibody, serum and NGF free 48 hours, Alamar Blue, +/−1 uM, read-out: IC(50), rescue from anti-NGF killing of SCG neurons
Procedure: Neurotrophins are critical to the growth, development, and survival of small fiber neurons of the PNS. SCG neurons are neurons of the PNS that undergo apoptosis upon NGF withdrawal. In a typical experiment SCG neurons are cultured in the presence of NGF, which induces survival and neurite out-growth. After 5 days the NGF is removed by either the addition of anti-NGF polyclonal antibody (Sigma) or by repeated washings (4 times) with NGF free media, resulting in the apoptosis of up to 90% of the neurons after 48 hours, as measured by MTS staining.
After 4 days the cells were treated with anti-NGF antibody (Sigma). At this time compound was added and the cells were maintained serum and NGF free for 48 hours, at which time viability was assessed using Alamar Blue (Medicorp) staining.

SCG neurons [2] = assay: cells; type: cell-based, Sprague Dawley rats; settings: Taxol™ (50 ng/mL), viability 48 hours later, MTS, read-out: IC(50), protection of SCG neurons from Taxol killing
CA II = CA II (Homo sapiens, UniProt P00918); assay: CA II inhibition; type: biochemical; settings: read-out: IC(50), CA II inhibition
Procedure: CA II inhabition was measured using the protocol described by Pocker, Y.'Stone, J. Biochemistry 1967, 6, 668.

Sprague Dawley rats = type: in vivo; settings: rat, in vivo, 9 mg/kg
Procedure: Taxol™ commonly causes dose dependent peripheral neuropathies during cancer treatment. […] All of the Taxol™ treated animals developed peripheral neuropathies, characterized by ‘tip toe walking’. The extent of this neuropathy was analyzed by quantifying the refracted light captured by a video camera as the animals walked over a glass plate.
Adult Sprague Dawley rats were treated with Taxol™ (IP, 9 mg/kg in Cremophor EL and ethanol) twice weekly for 3 weeks (J. Neuro-Oncology (1999) 41: 107-116). Compound was administered I hour prior to Taxol™ treatment (IP, 1, 5 and 10 mg/kg in hydroxypropyl-β-cyclodextrin). Taxol™ treated control animals were treated with saline solution at the same time of Compound treated animals. Non-treated control animals were treated with saline solution as above. Weight gain was measured every second day, starting at Day 1. Gait analysis was measured by quantifying the refracted light captured by a video camera as the animals walked over a glass plate, 2 days after the final Taxol™ treatment (Physiology and Behavior (1994), 55(4): 723-726; Med. Sci. Res. (1988) 16: 901-902). […] H/M wave recovery was analyzed using standard procedures 2 days after the final Taxol™ treatment (Muscle Nerve (1998) 21: 1405-1413; Annals of Neurology (1998) 43 (1): 46-55).
Male Spraugue Dawley rats were treated with 50% HPDC vehicle (veh/veh), compound I dissolved in 50% HPDC at 1, 5, or 10 mg/kg (veh/1, veh/5, veh/10, respectively), or Taxol™ (9 mg/kg)+compound 1 dissolved in 50% HPDC at 1, 5, and 10 mg/kg (Tax/1, Tax/5, Tax/10) according to the dosing regime described in Example 160. Weight measurements were made ever other day.
Two days after the completion of drug treatments animal walking gait was analyzed according to a) total imprint area, and b) total number of contact points.
FIG. 6 illustrates the effect of Compound 1 on H-reflex amplitude, a measurement of H/M wave disturbance induced by Taxol™. Two days after the completion of drug treatments, the dorsal root ganglia and attached nerves were dissected bilaterally from L4 and L5 and their H/M wave conductance measured.

[3] = Rattus norvegicus, Neuron, 48 h

Molecule: 6-(4-bromophenoxyphenyl)imidazo[2,1-b]-1,3,4-thiadiazole-2-sulfonamide [Compound 95]
IC50 (SCG neurons [1]): 7 µM
IC50 (SCG neurons [2]): 3 µM

IC50 (CA II): 5.32 µM
Molecule: NS(=O)(=O)c1nn2cc(-c3ccc4c(c3)OCCCO4)nc2s1 [Compound 21, 6-(3,4-dihydro-2H-1,5-benzodioxepin-7-yl)imidazo[2,1-b]-1,3,4-thiadiazole-2-sulfonamide]
IC50 (SCG neurons [1]; Rattus norvegicus, Neuron): 22 µM
IC50 (SCG neurons [2]; Rattus norvegicus, Neuron): 7 µM

Molecule: NS(=O)(=O)c1nn2cc(-c3ccc(OCCO)cc3)nc2s1 [Compound 26]
IC50 (SCG neurons [1]; Rattus norvegicus, Neuron): 23 µM
IC50 (SCG neurons [2]; Rattus norvegicus, Neuron): 7 µM

Molecule: COc1cc(-c2cn3nc(S(N)(=O)=O)sc3n2)ccc1OCCCOCc1ccccc1 [Compound 36]
IC50 (SCG neurons [1]; Rattus norvegicus, Neuron): 17 µM

IC50 (CA II): 1.61 µM and 2.19 µM
Molecule: NS(=O)(=O)c1nn2cc(-c3ccc(-c4ccccc4)cc3)nc2s1 [Compound 72, 6-(Biphenyl)imidazo[2,1-b]-1,3,4-thiadiazole-2-sulfonamide]
IC50 (SCG neurons [1]; Rattus norvegicus, Neuron): 17 µM
IC50 (SCG neurons [2]; Rattus norvegicus, Neuron): 10 µM

IC50 (CA II): 1.68 µM
Molecule: NS(=O)(=O)c1nn2cc(-c3ccc(-c4ccc(CO)cc4)cc3)nc2s1 [Compound 74, 6-(4-(hydroxymethylphenyl)phenyl)imidazo[2,1-b]-1,3,4-thiadiazole-2-sulfonamide]
IC50 (SCG neurons [1]; Rattus norvegicus, Neuron): 20 µM
IC50 (SCG neurons [2]; Rattus norvegicus, Neuron): 7 µM

IC50 (CA II): 0.441 µM
Molecule: COc1ccccc1-c1ccc(-c2cn3nc(S(N)(=O)=O)sc3n2)cc1 [Compound 75, 6-(4-(2-methoxyphenyl)phenyl)imidazo[2,1-b]-1,3,4-thiadiazole-2-sulfonamide]
IC50 (SCG neurons [1]; Rattus norvegicus, Neuron): 10 µM
IC50 (SCG neurons [2]; Rattus norvegicus, Neuron): 5 µM

Molecule: NS(=O)(=O)c1nn2cc(-c3ccc(-c4ccc5c(c4)OCO5)cc3)nc2s1 [Compound 79]
IC50 (SCG neurons [1]; Rattus norvegicus, Neuron): 7 µM

Molecule: NS(=O)(=O)c1nn2cc(-c3ccc(-c4cccc(C(F)(F)F)c4)cc3)nc2s1 [Compound 81, 6-(4-(3-trifluoromethylphenyl)phenyl)imidazo[2,1-b]-1,3,4-thiadiazole-2-sulfonamide]
IC50 (SCG neurons [1]; Rattus norvegicus, Neuron): 5 µM
IC50 (SCG neurons [2]; Rattus norvegicus, Neuron): 3 µM
IC50 (CA II): 1.58 µM

IC50 (CA II): 5.43 µM
Molecule: NS(=O)(=O)c1nn2cc(-c3ccc(-c4ccc(C(F)(F)F)cc4)cc3)nc2s1 [Compound 82, 6-(4-(4-trifluoromethylphenyl)phenyl)imidazo[2,1-b]-1,3,4-thiadiazole-2-sulfonamide]
IC50 (SCG neurons [1]; Rattus norvegicus, Neuron): 25 µM
IC50 (SCG neurons [2]; Rattus norvegicus, Neuron): 2 µM

Molecule: NS(=O)(=O)c1nn2cc(-c3ccc(-c4cccs4)cc3)nc2s1 [Compound 84, 6-(thiophen-2-yl-phenyl)imidazo[2,1-b]-1,3,4-thiadiazole-2-sulfonamide]
IC50 (SCG neurons [1]; Rattus norvegicus, Neuron): > 30 µM

Molecule: NS(=O)(=O)c1nn2cc(-c3ccc(-c4ccsc4)cc3)nc2s1 [Compound 85, 6-(thiophen-3-yl-phenyl)imidazo[2,1-b]-1,3,4-thiadiazole-2-sulfonamide]
IC50 (SCG neurons [1]; Rattus norvegicus, Neuron): > 30 µM

Molecule: COc1ccc(-c2cccc(-c3cn4nc(S(N)(=O)=O)sc4n3)c2)cc1 [Compound 86, 6-(4′methoxybiphen-3-yl)imidazo[2,1-b]-1,3,4-thiadiazole-2-sulfonamide]
IC50 (SCG neurons [1]; Rattus norvegicus, Neuron): 17 µM

IC50 (CA II): 0.128 µM
Molecule: NS(=O)(=O)c1nn2cc(-c3ccc(Oc4ccccc4)cc3)nc2s1 [Compound 87, 6-(4-phenoxyphenyl)imidazo[2,1-b]-1,3,4-thiadiazole-2-sulfonamide]
IC50 (SCG neurons [1]; Rattus norvegicus, Neuron): 10 µM
IC50 (SCG neurons [2]; Rattus norvegicus, Neuron): 5 µM

Molecule: NS(=O)(=O)c1nn2cc(-c3ccc(Oc4ccc(F)cc4)cc3)nc2s1 [Compound 88]
IC50 (SCG neurons [1]; Rattus norvegicus, Neuron): 10 µM

Molecule: NS(=O)(=O)c1nn2cc(-c3ccc(Oc4ccc(F)c(F)c4)cc3)nc2s1 [Compound 89, 6-(4-(3,4-difluorophenoxy)phenyl)imidazo[2,1-b]-1,3,4-thiadiazole-2-sulfonamide]
IC50 (SCG neurons [1]; Rattus norvegicus, Neuron): 10 µM

Molecule: NS(=O)(=O)c1nn2cc(-c3ccc(Oc4ccc(Cl)cc4)cc3)nc2s1 [Compound 91, 6-(4-chlorophenoxyphenyl)imidazo[2,1-b]-1,3,4-thiadiazole-2-sulfonamide]
IC50 (SCG neurons [1]; Rattus norvegicus, Neuron): 7 µM

Molecule: NS(=O)(=O)c1nn2cc(-c3ccc(Oc4ccc(Cl)c(Cl)c4)cc3)nc2s1 [Compound 92, 6-(3,4-dichlorophenoxyphenyl)imidazo[2,1-b]-1,3,4-thiadiazole-2-sulfonamide]
IC50 (SCG neurons [1]; Rattus norvegicus, Neuron): 7 µM

Molecule: NS(=O)(=O)c1nn2cc(-c3ccc(Oc4ccccc4Br)cc3)nc2s1 [Compound 93, 6-(2-bromophenoxyphenyl)imidazo[2,1-b]-1,3,4-thiadiazole-2-sulfonamide]
IC50 (SCG neurons [1]; Rattus norvegicus, Neuron): 7 µM

Molecule: NS(=O)(=O)c1nn2cc(-c3ccc(Oc4cccc(Br)c4)cc3)nc2s1 [Compound 94, 6-(3-bromophenoxyphenyl)imidazo[2,1-b]-1,3,4-thiadiazole-2-sulfonamide]
IC50 (SCG neurons [1]; Rattus norvegicus, Neuron): 10 µM

Molecule: CN(C)c1cccc(Oc2ccc(-c3cn4nc(S(N)(=O)=O)sc4n3)cc2)c1 [Compound 96, 6-(3-dimethylaminophenoxyphenyl)imidazo[2,1-b]-1,3,4-thiadiazole-2-sulfonamide]
IC50 (SCG neurons [1]; Rattus norvegicus, Neuron): 20 µM

Molecule: CC(C)c1ccc(Oc2ccc(-c3cn4nc(S(N)(=O)=O)sc4n3)cc2)cc1 [Compound 97, 6-(4-(4-iso-propylphenoxy)phenyl)imidazo[2,1-b]-1,3,4-thiadiazole-2-sulfonamide]
IC50 (SCG neurons [1]; Rattus norvegicus, Neuron): 7 µM

Molecule: COc1ccc(Oc2ccc(-c3cn4nc(S(N)(=O)=O)sc4n3)cc2)cc1 [Compound 98, 6-(4-(4-methoxyphenoxy)phenyl)imidazo[2,1-b]-1,3,4-thiadiazole-2-sulfonamide]
IC50 (SCG neurons [1]; Rattus norvegicus, Neuron): 17 µM

IC50 (CA II): 0.914 µM
Molecule: NS(=O)(=O)c1nn2cc(-c3ccc(Oc4ccc([N+](=O)[O-])cc4)cc3)nc2s1 [Compound 99, 6-(4-(4-nitrophenoxy)phenyl)imidazo[2,1-b]-1,3,4-thiadiazole-2-sulfonamide]
IC50 (SCG neurons [1]; Rattus norvegicus, Neuron): 7 µM
IC50 (SCG neurons [2]; Rattus norvegicus, Neuron): 2 µM

Molecule: NS(=O)(=O)c1nn2cc(-c3ccccn3)nc2s1 [Compound 106, 6-(2-Pyridyl)imidazo[2,1-b]-1,3,4-thiadiazole-2-sulfonamide HCl]
IC50 (SCG neurons [1]; Rattus norvegicus, Neuron): 7 µM

Molecule: COc1cccc(-c2ccc(-c3cn4nc(S(N)(=O)=O)sc4n3)cc2)c1 [Compound 149, 6-(3′-methoxybiphen-4-yl)imidazo[2,1-b]-1,3,4-thiadiazole-2-sulfonamide sodium salt]
IC50 (SCG neurons [1]; [3]): 7 µM

Molecule: NS(=O)(=O)c1nn2cc(-c3ccc(-c4cccc(C(F)(F)F)c4)cc3)nc2s1 [Compound 150, 6-(3′-trifluoromethylbiphen-4-yl)imidazo[2,1-b]-1,3,4-thiadiazole-2-sulfonamide sodium salt]
IC50 (SCG neurons [1]; [3]): 7 µM

Molecule: CC(=O)O[C@H]1C(=O)[C@@]2(C)[C@H]([C@H](OC(=O)c3ccccc3)[C@]3(O)C[C@H](OC(=O)[C@H](O)[C@@H](NC(=O)c4ccccc4)c4ccccc4)C(C)=C1C3(C)C)[C@]1(OC(C)=O)CO[C@@H]1C[C@@H]2O [Taxol™, reference compound]
reduction in foot-pad contact as compared to control animals (Sprague Dawley rats): 46%
weight gain over a thirteen day period (Sprague Dawley rats): no weight gain
